The target in one data set is T1, Aβ(1-40) peptide (Homo sapiens, UniProt P05067).
T1 construct: 10 μL 0.5 mg/mL Aβ(1-40) peptide in 20% HFIP
Nature of the data set: BAPA (Beta-Amyloid Peptide Aggregation), pH 6.0, filtration endpoint. In kind it is biochemical. The procedure:
3. BAPA (Beta-Amyloid Peptide Aggregation)
This assay is used to provide a measure of inhibition by a compound against the aggregation behavior of the beta amyloid peptide.
The purpose of this assay is to provide a higher volume method of assaying the amount of beta amyloid aggregation using an endpoint assay based on filtration. In this assay, hexafluoroisopropanol (HFIP) is used to break down the initial amyloid peptide to a monomer state and a concentration of 33 μM is used, a concentration which is high enough so that aggregation will occur at pH 6.0 in several hours.
β-Amyloid Peptide Aggregation, pH 6.0 (BAPA)
To a 96-well plate (Costar 3794) is added 25 μL 50 mM Phosphate Buffer (pH 6.0), 10 μL 0.5 mg/mL Aβ(1-40) peptide in 20% HFIP+0.1 μL/assay radioiodinated ^125I Aβ(1-40) [^125I Aβ(1-40)], and 1 μL of the compound to be tested, starting at […] with a concentration of DMSO<1%. The reaction is incubated for 2 to 4 hours at room temperature. The reaction is stopped with 200 μL of 50 mM phosphate buffer, pH 6.0, and filtered through a 0.2 μm 96-well filter plate (Millipore MAGU N22). The filter plate is washed with 100 μL of the same phosphate buffer. Aggregation is detected on a Microbeta counter after impregnating the filters with Meltilex (1450-441) and is corrected for background.

In data set [1] the target is T2, Aβ(1-40) (Homo sapiens, UniProt P05067).
T2 construct: Soluble Aβ(1-40) peptide (Bachem, Torrance, Calif.); purchased Bachem, Torrance, Calif
T2 sequence (P05067 672-711): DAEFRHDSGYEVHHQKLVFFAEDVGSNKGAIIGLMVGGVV
As to the kind of experiment: BASST (Beta-Amyloid Self-seeding, Thioflavin T), inhibitors of self-seeded amyloid fibril growth. In kind it is biochemical. Particulars: 30 μM soluble Aβ(1-40), 37° C. 3 to 5 hours, thioflavin T fluorescence; replicate values. The procedure: 2. BASST (Beta-Amyloid Self-seeding, Thioflavin T)
(§1) An assay for inhibitors of self-seeded amyloid fibril growth
(§2) Assay Buffer—50 mM sodium phosphate, pH 7.5, 100 mM NaCl, 0.02% NaN3, 1 M urea (filter and store at 4° C.)
Soluble Aβ(1-40)—2.2 mg/mL in deionized H2O (is stored in aliquots at −20° C.; is kept on ice when thawed) will self-seed after 1 week storage. Typically, the solution is stored until no lag phase is seen in the assay.
Final assay conditions: 30 μM soluble Aβ(1-40) in deionized water in assay buffer. Compound to be tested is dissolved in DMSO, typically 5 to 50 mM stock, such that the final concentration of DMSO is<1% v/v in the assay.
Assay: Reaction mixture for 50 assays (on ice) is comprised of 1 μL of soluble Aβ(1-40)+13.5 μL assay buffer per assay. The following are the amounts of the components of the reaction mixture that result in each of the 50 assay wells.
1) The reaction mix above is prepared by mixing the components and storing on ice.
2) 14.5 μL of reaction mixture is pipetted into each of 50 wells of a polystyrene U-bottom, 96-well microtiter plate (Corning 25881-96) on ice.
(§3) 3) 1.7 μL of diluted compound to be tested is added to each well in a column of eight, including solvent control. Serial 3-fold dilutions from 1 mM (100 μM final) in assay buffer−urea=7 dilutions+zero. Each 96-well plate can therefore accommodate 11 samples+1 Congo Red control (0.039-5 μM final in 2-fold steps).
4) The plate with aluminum film is sealed and incubated for 10 minutes on ice.
(§4) 5) The temperature is raised to 37° C. and incubated for 3 to 5 hours (depending on the lot of the peptide).
6) The aluminum film is removed and 250 μL/well of 5 μM thioflavin T (ThT) [T-3516, Sigma-Aldrich] is added in 50 mM glycine-NaOH, pH 8.5. Fluorescence is read on a plate reader (ex=440 nm/20 nm; em=485 nm/20 nm) within 5 minutes.

The target in a further data set is T3, Aβ(1-42) (Homo sapiens, UniProt P05067).
T3 construct: Required Aβ(1-42) (California Peptide) is dried from its hexafluoroisopropanol (HFIP) stock solution; purchased California Peptide
T3 sequence (P05067 672-713): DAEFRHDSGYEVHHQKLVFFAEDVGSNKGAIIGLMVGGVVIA
Nature of the data set: BATYM assay, Aβ(1-42) aggregation by Thioflavin T fluorescence. Particulars: Aβ1-42 final concentration 100 μM, 37° C. 1 day, ThT fluorescence; (P)/(Q) marks undefined. In kind it is biochemical. The protocol:
Required Aβ(1-42) (California Peptide) is dried from its hexafluoroisopropanol (HFIP) stock solution. The Aβ(1-42) is dissolved in DMSO and then mixed with phosphate buffered saline (PBS) (pH 7.4). The mixed Aβ(1-42) solution is filtered with a GVWP 0.22 μm syringe filter (Millipore, Bedford, Mass.). The compound to be tested in DMSO (50 times concentrate) is put into each well (0.5 μL/well) of a 96-well plate. The Aβ(1-42) solution is added into each well (25 μL/well). The plate is centrifuged at 1000 g for 5 minutes and incubated at 37° C. for 1 day (Aβ1-42; final concentration 100 μM).
After incubation Thioflavin T (ThT) (30 μM) solution in glycine-NaOH buffer (pH 8.5, 50 mM) is added into each well (250 μL/well), fluorescence is measured (ex=440/20 nm, em=485/20 nm) using a fluorescence plate reader. The inhibitory activity is calculated as the reduction of fluorescence with the following formula:
Inhibition (%)={(F(Aβ)−F(Aβ+compound)}/{F(Aβ)−F(solvent−compound)}×100.
The IC50s are calculated by a curve-fitting program using the equation given below. The data is obtained from two different experiments in triplicate.
x=concentration of tested compound (M),

Data set [2] has as its target T2, Aβ(1-40). As to the kind of experiment: BASSR (Beta-Amyloid Self-Seeding Radioassay), inhibitors of self-seeded amyloid fibril growth. In kind it is biochemical. Particulars: 30 μM soluble Aβ(1-40), 125I-labeled Aβ(1-40), 37° C. 3 to 5 hours; replicate values; ppt = precipitate formed at the indicated concentration. The procedure:
1. BASSR (Beta-Amyloid Self-Seeding Radioassay)
as §1, §2
Soluble Aβ(1-40) peptide (Bachem, Torrance, Calif.)—2.2 mg/mL in […] deionized H2O (is stored in aliquots at −20° C.; is kept on ice when thawed) will self-seed after 1 week storage. Typically, the solution is stored until no lag phase is seen in the assay.
^125I-labeled Aβ(1-40)—150K to 350K cpm/μL in 100% acetonitrile−0.1% trifluoroacetic acid (TFA)—1% β-mercaptoethanol (aliquots stored at −20° C). ^125I-labeled Aβ(1-40) is made in accordance with the procedure set forth by LeVine H., III, in Neurobiol. Aging, 1995;16:755, which is hereby incorporated by reference, or this reagent may be purchased from Amersham, Arlington Heights, Ill.
Final assay conditions: 30 μM soluble Aβ(1-40) in deionized water in assay buffer+20K to 50K cpm ^125I-labeled Aβ (1-40) per assay. Compound to be tested is dissolved in dimethylsulfoxide (DMSO), typically 5 to 50 mM stock, such that the final concentration of DMSO is<1% v/v in the assay.
Assay: Reaction mixture for 50 assays (on ice) is comprised of 0.1 to 0.2 μL of ^125I-labeled A^125I-labeled Aβ(1-40)+1 μL of soluble Aβ(1-40)+13.5 μL assay buffer per assay. The following are the amounts of the components of the reaction mixture sufficient for 50 assay wells.
1) The reaction mixture of above is prepared by mixing components and storing on ice.
b 2) 14.5 μL of the reaction mixture is pipetted into each of 50 wells on a polypropylene U-bottom 96-well microtiter plate on ice (Costar 3794).
as §3
4) The plate with aluminum film (Beckman 538619) is sealed and incubated for 10 minutes on ice.
as §4
6) The aluminum film is removed and 200 μL/well of ice cold assay buffer with urea is added. The radiolabeled fibrils are collected by vacuum filtration through 0.2 μm pore size GVWP filters in 96-well plates (Millipore MAGV N22, Bedford, Mass.). The radioactivity of the filters is determined by using standard methods well-known to those skilled in the art.

The mark [3] stands for this setting: 33 μM Aβ(1-40), pH 6.0, 2 to 4 hours at room temperature, (Q) mark undefined, read-out: BAPA (IC50 = μM).
[4] abbreviates: marked (BAPA2), variant not described, read-out: BAPA (IC50 = μM), value marked (BAPA2).

Values joined by “and” are separate entries in the source; they are usually repeats but may differ in a detail not shown here. Equal entries are not always repeated. Where two headings read alike, the source gives them in different places.

This is an account of results in patent US20020143012A1, “Phenoxazine analogs useful as amyloid aggregation inhibitors and treatment of alzheimer's disease and disorders related to amyloidosis” (priority 2000, published 2002).

T1 sequence (P05067 672-711): as the sequence (P05067 672-711) above

For `O=C(O)c1cc([N+](=O)[O-])cc2c1Nc1ccc(CCC(O)c3ccc(Cl)c(Cl)c3)cc1O2` (stereo not shown) [Compound 8, 7-[3-(3,4-Dichlorophenyl)-3-hydroxypropyl]-3-nitrophenoxazine carboxylic acid], the melting point (usually the temperature of the solid-liquid transition) lay within 218 to 220 °C. Also, on Aβ(1-40) peptide (setting [3]), the IC50 (as a rule, the midpoint of a concentration-inhibition curve) was 100 µM. Also, at Aβ(1-40) [1], 0.6 µM corresponded to half-maximal inhibition (IC50). This molecule also gave an IC50 on Aβ(1-42) of 4.18 µM. Also, the IC50 against Aβ(1-40) [2] was > 100 µM and 100 µM (2×).
For `O=C(O)c1cc([N+](=O)[O-])cc2c1Nc1cc(-c3ccccc3)ccc1O2` [Compound 2, 3-nitro-8-phenylphenoxazinecarboxylic acid], the IC50 on Aβ(1-40) peptide (setting [3]) was 5 µM; at Aβ(1-40) [1] it was 1 µM; against Aβ(1-42), 4.15 µM; at Aβ(1-40) [2], 60 µM (2×) and 70 µM.
For `Nc1cc2c(c(C(=O)O)c1)Nc1ccc(CCCc3ccc(Cl)c(Cl)c3)cc1O2` [Compound 9, 3-Amino-7-[3-(3,4-dichlorophenyl)propyl]phenoxazine carboxylic acid], the melting point lay within 213 to 216 °C. In addition, the IC50 on Aβ(1-40) peptide (setting [3]) worked out at 86 µM. Moreover, at Aβ(1-40) [1], the IC50 was determined as 3 µM. This molecule also showed an IC50 at Aβ(1-42) of 8.75 µM. For the same molecule, the IC50 against Aβ(1-40) [2] was 60 µM and > 100 µM.
As to `O=C(/C=C/c1ccc2c(c1)Oc1cc([N+](=O)[O-])cc(C(=O)O)c1N2)c1ccc(Cl)c(Cl)c1` [Compound 6, 7-[3-(3,4-Dichlorophenyl)-3-oxoprop-1-enyl]-3-nitrophenoxazinecarboxylic acid], the melting point is > 200 °C. The IC50 at Aβ(1-40) peptide (setting [3]) was > 100 µM. The molecule further had an IC50 against Aβ(1-40) [1] of 1 µM. The same molecule registered an IC50 against Aβ(1-42) of 4.61 µM. The IC50 against Aβ(1-40) [2] is 21 µM and 22 µM and 25 µM.
In the case of `O=C(O)c1cc([N+](=O)[O-])cc2c1Nc1ccc(CCc3ccc(Cl)c(Cl)c3)cc1O2` [Compound 5, 7-[2-(3,4-dichlorophenyl)ethyl]-3-nitrophenoxazinecarboxylic acid], the melting point was > 250 °C. Besides, the half-maximal inhibitory concentration (IC50) on Aβ(1-40) peptide (setting [3]) worked out at 0.9 µM. The IC50 at Aβ(1-40) [1] is 3 µM and 1 µM. Further, the IC50 against Aβ(1-42) is 7.89 µM and 3.02 µM. For the same molecule, on Aβ(1-40) [2], the IC50 was 60 µM and > 100 µM.
Take “3-Nitrophenoxazinecarboxylic acid [Compound 3]”: the IC50 at Aβ(1-40) peptide (setting [3]) was 62 µM; on Aβ(1-40) peptide (setting [4]), > 100 µM; against Aβ(1-40) [1] it was 13 µM (2×) and 40 µM (2×) and 23 µM (2×); on Aβ(1-40) [2], 8 µM.
For the molecule `O=C(O)c1cc([N+](=O)[O-])cc2c1Nc1cc3ccccc3cc1O2` [Compound 21, 3-nitrobenzo[b]phenoxazinecarboxylic acid], the melting point is > 230 °C. The IC50 at Aβ(1-40) peptide (setting [3]) came to 67 µM. The same molecule gave an IC50 at Aβ(1-40) [1] of 1 µM. The same molecule returned an IC50 on Aβ(1-42) of 6.7 µM. For the same molecule, the IC50 against Aβ(1-40) [2] is 12 µM and 11 µM and 10 µM.
With `O=C(O)c1cc([N+](=O)[O-])cc2c1Nc1ccc(CCCc3ccc(Cl)c(Cl)c3)cc1O2` [Compound 7, 7-[3-(3,4-Dichlorophenyl)propyl]-3-nitrophenoxazine carboxylic acid], the IC50 on Aβ(1-40) peptide (setting [3]) is > 100 µM; against Aβ(1-40) [1], 0.5 µM; at Aβ(1-42) it was 1.88 µM; at Aβ(1-40) [2], 30 µM and 20 µM and 6 µM.
Take `O=C(O)c1cc(OCc2ccccc2)cc2c1Nc1ccccc1O2` [Compound 4, 3-(Phenylmethoxy)phenoxazinecarboxylic acid]: the IC50 at Aβ(1-40) peptide (setting [4]) was > 50 µM; at Aβ(1-40) [1], 8.4 µM and 45 µM (2×) and 8.44 µM; against Aβ(1-40) [2] it was 14 µM.
